# According to patent US6472418B1, “Non-peptide NK1 receptors antagonists” (Warner-Lambert Company, priority 1998, dated 2002):
# Target: T1, Human NK1 Receptor (Homo sapiens, UniProt P25103)
# T1 construct: endogenous in cells; host or cells: Human lymphoma IM9 cells (whole cells)
# Test: In Vitro Human NK1 Receptor Binding Assay ([125I]Bolton-Hunter substance P displacement, IM9 cells)
# Details: human NK1 receptor, IM9 cells, [125I]Bolton-Hunter substance P; read-out: IC50 (nM) hNK1
# Summary of the method: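 Test compounds competed with 0.05-0.1 nM [125I]Bolton-Hunter substance P for binding to intact IM9 cells over 50 min at 21° C, pH 7.4 buffer with MnCl2 and peptidase inhibitors. […] [Sar9, Met(O2)11] substance P gave non-specific binding. Bound counts were measured after filtration and fitted iteratively.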
# T1 sequence (P25103 whole entry): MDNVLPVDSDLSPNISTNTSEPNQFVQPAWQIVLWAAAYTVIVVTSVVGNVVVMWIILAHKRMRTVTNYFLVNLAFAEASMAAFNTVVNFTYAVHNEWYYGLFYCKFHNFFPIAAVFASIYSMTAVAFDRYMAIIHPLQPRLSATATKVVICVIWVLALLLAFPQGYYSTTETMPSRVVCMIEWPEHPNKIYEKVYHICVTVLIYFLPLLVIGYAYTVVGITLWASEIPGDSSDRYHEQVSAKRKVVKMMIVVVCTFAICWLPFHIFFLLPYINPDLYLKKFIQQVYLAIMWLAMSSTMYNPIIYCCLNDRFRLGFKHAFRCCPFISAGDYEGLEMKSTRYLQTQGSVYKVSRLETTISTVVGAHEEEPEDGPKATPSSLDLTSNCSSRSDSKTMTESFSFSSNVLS
row,IC50 [nM],Structure (SMILES)
1,100,"CC(Cc1c[nH]c2ccccc12)(NCc1cc2ccccc2o1)C(=O)NCc1cccs1 (stereo not shown) [compound 137, 2-[(Benzofuran-2-ylmethyl)-amino]-3-(1H-indol-3-yl)-2-methyl-N-thiophen-2-ylmethyl-propionamide]"
2,99,"CC(Cc1c[nH]c2ccccc12)(NCc1cc2ccccc2o1)C(=O)NCc1cc(F)ccc1F (stereo not shown) [compound 139, 2-[(Benzofuran-2-ylmethyl)-amino]-N-(2,5-difluoro-benzyl)-3-(1H-indol-3-yl)-2-methyl-propionamide]"
3,> 10000,"CC(CNC(=O)C(C)(Cc1c[nH]c2ccccc12)NCc1cc2ccccc2o1)c1ccccc1 (stereo not shown) [compound 140, 2-[(Benzofuran-2-ylmethyl)-amino]-3-(1H-indol-3-yl)-2-methyl-N-(2-phenyl-propyl)-propionamide]"
4,2340,"CC(Cc1c[nH]c2ccccc12)(NCc1cc2ccccc2o1)C(=O)NCc1ccc(N)c2ccccc12 (stereo not shown) [compound 141, N-(4-Amino-naphthalen-1-ylmethyl)-2-[(benzofuran-2-ylmethyl)-amino]-3-(1H-indol-3-yl)-2-methyl-propionamide]"
5,> 10000,"CC(Cc1c[nH]c2ccccc12)(NCc1cc2ccccc2o1)C(=O)NCCc1ccc(O)cc1 (stereo not shown) [compound 143, 2-[(Benzofuran-2-ylmethyl)-amino]-N-[2-(4-hydroxy-phenyl)-ethyl]-3-(1H-indol-3-yl)-2-methyl-propionamide]"
6,1300,"CC(Cc1c[nH]c2ccccc12)(NCc1cc2ccccc2o1)C(=O)NCCc1cccnc1 (stereo not shown) [compound 145, 2-[(Benzofuran-2-ylmethyl)-amino]-3-(1H-indol-3-yl)-2-methyl-N-(2-pyridin-3-yl-ethyl)-propionamide]"
7,262,"CC(CNC(=O)C(C)(Cc1c[nH]c2ccccc12)NCc1cc2ccccc2o1)c1ccccc1 (stereo not shown) [compound 150, 2-[(Benzofuran-2-ylmethyl)-amino]-3-(1H-indol-3-yl)-2-methyl-N-(2-phenyl-propyl)-propionamide]"
8,1210,"CC(Cc1c[nH]c2ccccc12)(NCc1cc2ccccc2o1)C(=O)NCc1cnc2ccccc2c1 (stereo not shown) [compound 151, 2-[(Benzofuran-2-ylmethyl)-amino]-3-(1H-indol-3-yl)-2-methyl-N-quinolin-3-ylmethyl-propionamide]"
9,455,"Cc1ccccc1CNC(=O)C(C)(Cc1c[nH]c2ccccc12)NCc1cc2ccccc2o1 (stereo not shown) [compound 157, 2-[(Benzofuran-2-ylmethyl)-amino]-3-(1H-indol-3-yl)-2-methyl-N-(2-methyl-benzyl)-propionamide]"
10,> 10000,"CC(Cc1c[nH]c2ccccc12)(NCc1cc2ccccc2o1)C(=O)NCCc1ccc(O)c(O)c1 (stereo not shown) [compound 161, 2-[(Benzofuran-2-ylmethyl)-amino]-N-[2-(3,4-dihydroxy-phenyl)-ethyl]-3-(1H-indol-3-yl)-2-methyl-propionamide]"
11,166,"CC(Cc1c[nH]c2ccccc12)(NCc1cc2ccccc2o1)C(=O)NCC(=O)c1ccccc1 (stereo not shown) [compound 163, 2-[(Benzofuran-2-ylmethyl)-amino]-3-(1H-indol-3-yl)-2-methyl-N-(2-oxo-2-phenyl-ethyl)-propionamide]"
12,37,"CC(Cc1c[nH]c2ccccc12)(NCc1cc2ccccc2o1)C(=O)NCc1cccc(F)c1 (stereo not shown) [compound 166, 2-[(Benzofuran-2-ylmethyl)-amino]-N-(3-fluoro-benzyl)-3-(1H-indol-3-yl)-2-methyl-propionamide]"
13,29,"CC(Cc1c[nH]c2ccccc12)(NCc1cc2ccccc2o1)C(=O)NCc1ccc(F)c(F)c1 (stereo not shown) [compound 167, 2-[(Benzofuran-2-ylmethyl)-amino]-N-(3,4-difluoro-benzyl)-3-(1H-indol-3-yl)-2-methyl-propionamide]"

# The remaining lines, values behind:
row,Structure (SMILES),IC50 [nM]
1,"CC(Cc1c[nH]c2ccccc12)(NCc1cc2ccccc2o1)C(=O)NCC1CCCO1 (stereo not shown) [compound 135, 2-[(Benzofuran-2-ylmethyl)-amino]-3-(1H-indol-3-yl)-2-methyl-N-(tetrahydro-furan-2-ylmethyl)-propionamide]",1200
2,"CC1(CNC(=O)C(C)(Cc2c[nH]c3ccccc23)NCc2cc3ccccc3o2)CCCO1 (stereo not shown) [compound 136, 2-[(Benzofuran-2-ylmethyl)-amino]-3-(1H-indol-3-yl)-2-methyl-N-(2-methyl-tetrahydro-furan-2-ylmethyl)-propionamide]",> 10000
3,"CC(Cc1c[nH]c2ccccc12)(NCc1cc2ccccc2o1)C(=O)NCC1CCCO1 (stereo not shown) [compound 138, 2-[(Benzofuran-2-ylmethyl)-amino]-3-(1H-indol-3-yl)-2-methyl-N-(tetrahydro-furan-2-ylmethyl)-propionamide]",4870
4,"COc1cccc(CNC(=O)C(C)(Cc2c[nH]c3ccccc23)NCc2cc3ccccc3o2)c1OC (stereo not shown) [compound 142, 2-[(Benzofuran-2-ylmethyl)-amino]-N-(2,3-dimethoxy-benzyl)-3-(1H-indol-3-yl)-2-methyl-propionamide]",1960
5,"CC(Cc1c[nH]c2ccccc12)(NCc1cc2ccccc2o1)C(=O)NC1(CO)CCCC1 (stereo not shown) [compound 144, 2-[(Benzofuran-2-ylmethyl)-amino]-N-(1-hydroxymethyl-cyclopentyl)-3-(1H-indol-3-yl)-2-methyl-propionamide]",> 10000
6,"CC(NC(=O)C(C)(Cc1c[nH]c2ccccc12)NCc1cc2ccccc2o1)C1=CCCO1 (stereo not shown) [compound 146, 2-[(Benzofuran-2-ylmethyl)-amino]-N-[1-(4,5-dihydro-furan-2-yl)-ethyl]-3-(1H-indol-3-yl)-2-methyl-propionamide]",3590
7,"CC(Cc1c[nH]c2ccccc12)(NCc1cc2ccccc2o1)C(=O)NCCN1CCNCC1 (stereo not shown) [compound 147, 2-[(Benzofuran-2-ylmethyl)-amino]-3-(1H-indol-3-yl)-2-methyl-N-(2-piperazin-1-yl-ethyl)-propionamide]",> 10000
8,"CC(Cc1c[nH]c2ccccc12)(NCc1cc2ccccc2o1)C(=O)NC1CCCc2ccccc21 (stereo not shown) [compound 148, 2-[(Benzofuran-2-ylmethyl)-amino]-3-(1H-indol-3-yl)-2-methyl-N-(1,2,3,4-tetrahydro-naphthalen-1-yl)-propionamide]",> 10000
9,"COC1C=CC(CNC(=O)C(C)(Cc2c[nH]c3ccccc23)NCc2cc3ccccc3o2)(OC)O1 (stereo not shown) [compound 149, 2-[(Benzofuran-2-ylmethyl)-amino]-N-(2,5-dimethoxy-2,5-dihydro-furan-2-ylmethyl)-3-(1H-indol-3-yl)-2-methyl-propionamide]",> 10000
10,"CC(Cc1c[nH]c2ccccc12)(NCc1cc2ccccc2o1)C(=O)NCC(CC(=O)O)c1ccccc1 (stereo not shown) [compound 152, 4-[2-[(Benzofuran-2-ylmethyl)-amino]-3-(1H-indol-3-yl)-2-methyl-propionylamino]-3-phenyl-butyric acid]",> 10000
11,"COc1cc(C(O)CNC(=O)C(C)(Cc2c[nH]c3ccccc23)NCc2cc3ccccc3o2)ccc1O (stereo not shown) [compound 153, 2-[(Benzofuran-2-ylmethyl)-amino]-N-[2-hydroxy-2-(4-hydroxy-3-methoxy-phenyl)-ethyl]-3-(1H-indol-3-yl)-2-methyl-propionamide]",3550
12,"CC(Cc1c[nH]c2ccccc12)(NCc1cc2ccccc2o1)C(=O)NCC1CCNC1 (stereo not shown) [compound 154, 2-[(Benzofuran-2-ylmethyl)-amino]-3-(1H-indol-3-yl)-2-methyl-N-pyrrolidin-3-ylmethyl-propionamide]",> 10000
13,"CC(Cc1c[nH]c2ccccc12)(NCc1cc2ccccc2o1)C(=O)NCCN1CCCC1 (stereo not shown) [compound 155, 2-[(Benzofuran-2-ylmethyl)-amino]-3-(1H-indol-3-yl)-2-methyl-N-(2-pyrrolidin-1-yl-ethyl)-propionamide]",> 10000
14,"CC(Cc1c[nH]c2ccccc12)(NCc1cc2ccccc2o1)C(=O)NCC1CCNCC1 (stereo not shown) [compound 156, 2-[(Benzofuran-2-ylmethyl)-amino]-3-(1H-indol-3-yl)-2-methyl-N-piperidin-4-ylmethyl-propionamide]",> 10000
15,"CC(Cc1c[nH]c2ccccc12)(NCc1cc2ccccc2o1)C(=O)NC1CCc2ccccc21 (stereo not shown) [compound 158, 2-[(Benzofuran-2-ylmethyl)-amino]-N-indan-1-yl-3-(1H-indol-3-yl)-2-methyl-propionamide]",2570
16,"CC(Cc1c[nH]c2ccccc12)(NCc1cc2ccccc2o1)C(=O)NCC1(c2cccnc2)CCC1 (stereo not shown) [compound 159, 2-[(Benzofuran-2-ylmethyl)-amino]-3-(1H-indol-3-yl)-2-methyl-N-(1-pyridin-3-yl-cyclobutylmethyl)-propionamide]",3760
17,"CC(Cc1c[nH]c2ccccc12)(NCc1cc2ccccc2o1)C(=O)NC1(c2cccs2)CCCCC1 (stereo not shown) [compound 160, 2-[(Benzofuran-2-ylmethyl)-amino]-3-(1H-indol-3-yl)-2-methyl-N-(1-thiophen-2-yl-cyclohexyl)-propionamide]",> 10000
18,"CCC(NC(=O)C(C)(Cc1c[nH]c2ccccc12)NCc1cc2ccccc2o1)c1ccccc1 (stereo not shown) [compound 162, 2-[(Benzofuran-2-ylmethyl)-amino]-3-(1H-indol-3-yl)-2-methyl-N-(1-phenyl-propyl)-propionamide]",42
19,"CC(Cc1c[nH]c2ccccc12)(NCc1cc2ccccc2o1)C(=O)NCC1CC2CCC1C2 (stereo not shown) [compound 165, 2-[(Benzofuran-2-ylmethyl)-amino]-N-bicyclo[2.2.1]hept-2-ylmethyl-3-(1H-indol-3-yl)-2-methyl-propionamide]",> 10000
20,CC(Cc1c[nH]c2ccccc12)(NCc1cc2ccccc2o1)C(=O)NCc1ccc(F)cc1Cl (stereo not shown) [compound 168],230
21,"Cc1cc(C)c(CNC(=O)C(C)(Cc2c[nH]c3ccccc23)NCc2cc3ccccc3o2)cn1 (stereo not shown) [compound 169, 2-[(Benzofuran-2-ylmethyl)-amino]-N-(4,6-dimethyl-pyridin-3-ylmethyl)-3-(1H-indol-3-yl)-2-methyl-propionamide]",6020
